This is an account of results in patent publication US6734337B2, “Acetyl-coenzyme A carboxylase 2 as a target in the regulation of fat burning, fat accumulation, energy homeostasis and insulin action” (Research Development Foundation, priority 2000, dated 2004).

For one assay, the system named is ACC. The settings on record: mice treated with fatty acid synthase inhibitors; cited from earlier work.
The subject of assay [1] is soleus muscles of wild-type (Acc2+/+) mice. Kind of assay: [3H]palmitate oxidation in isolated soleus muscle of wild-type mice. The class given is cell-based, mouse. The note with it: isoproterenol 3 mM, 30 min, 37° C. The protocol: Where indicated, insulin (10 nM) or isoproterenol (3 mM) was added, and the vials were incubated at 37° C. under a humidified O2/CO2 (95/5%) atmosphere for 30 min. At the end of the incubation period, the [^3H]2O was separated from the labeled substrate and counted. To provide further evidence for the role of ACC2-synthesized malonyl-CoA as the regulator of fatty acid oxidation, fatty acid oxidation was investigated in the mouse soleus muscle, a […] muscle tissue responsive to hormonal regulation ([…]., Gamble, J., Patel, A., Kemp, […]., and Ruderman, W. B., J Biol Chem., 272:13255-13261 1997; Alam, N., and E. D. Saggerson. Biochem J., 334:233-41, 1998; […]., and […]. Proc Natl Acad Sci. USA 92, 4011-4015, 1995; […]., and […] Biol Chem. 272, 10669-10677, 1997; -Ha, J., J. K. Lee, […], and K.-H. Him. Proc Natl Acad Sci USA. 93:11466-11470, 1996; Rasmussen, B. B. and Wolfe, R. R., Ann. Rev. Natr. 19:463, 1999; and, Bressler, R. and […] Biol Chem. 236:1643-1651, 1961). […] Insulin is known to activate both ACC1 and ACC2 and, thereby, to induce fatty acid synthesis and inhibit fatty acid oxidation, respectively. […] Faseb J. 3:2250-2256, 1989; Thampy, K. G., and […]. Biol. Chem. 263, 6454-6458, 1988; […]., and […]. Biol. Chem. 265, 6330-6338, 1990; Mohamed, A. H., W. Y. Huang, W. Huang, K. V. Venkatachalam, and […] Biol Chem. 269:6859-6865. […]

The test system of assay [2] is soleus muscles of Acc2-/- mutant mice. The experiment in a line: [3H]palmitate oxidation in isolated soleus muscle of Acc2-/- mutant mice. The class given is cell-based, mouse. The settings on record: 30 min, 37° C. The protocol:
Where indicated, insulin (10 nM) or isoproterenol (3 mM) was added, and the vials were incubated at 37° C. under a humidified O2/CO2 (95/5%) atmosphere for 30 min. At the end of the incubation period, the [^3H]2O was separated from the labeled substrate and counted. To provide further evidence for the role of ACC2-synthesized malonyl-CoA as the regulator of fatty acid oxidation, fatty acid oxidation was investigated in the mouse soleus muscle, a […] muscle tissue responsive to hormonal regulation ([…]., Gamble, J., Patel, A., Kemp, […]., and Ruderman, W. B., J Biol Chem., 272:13255-13261 1997; Alam, N., and E. D. Saggerson. Biochem J., 334:233-41, 1998; […]., and […]. Proc Natl Acad Sci. USA 92, 4011-4015, 1995; […]., and […] Biol Chem. 272, 10669-10677, 1997; -Ha, J., J. K. Lee, […], and K.-H. Him. Proc Natl Acad Sci USA. 93:11466-11470, 1996; Rasmussen, B. B. and Wolfe, R. R., Ann. Rev. Natr. 19:463, 1999; and, Bressler, R. and […] Biol Chem. 236:1643-1651, 1961). […] Insulin is known to activate both ACC1 and ACC2 and, thereby, to induce fatty acid synthesis and inhibit fatty acid oxidation, respectively. […] Faseb J. 3:2250-2256, 1989; Thampy, K. G., and […]. Biol. Chem. 263, 6454-6458, 1988; […]., and […]. Biol. Chem. 265, 6330-6338, 1990; Mohamed, A. H., W. Y. Huang, W. Huang, K. V. Venkatachalam, and […] Biol Chem. 269:6859-6865. 1994; and, Hardie, D. G. Prog Lipid Res. 28:117-146, 1989). The role of ACC2 in the regulation of mitochondrial oxidation of fatty acids was further confirmed by using isoproterenol, an analog of glucagon, which produces effects opposite of those of insulin. Adding isoproterenol to wild-type soleus muscle increased palmitate oxidation by 50% (FIG. 4), raising it to nearly the same level as that found in the mutant muscle cells. […] This additional increase may be due to factors independent of malonyl-CoA ([…]. Lopez-[…]. Bai, X. Luo, and M. E. Pape. Faseb J. 3:2250-2256, 1989).

`CCCCCCCCCCCCCCOc1ccc(C(=O)O)o1` [5-(tetradeculoxy)-2 furoic acid]: the “effect on food uptake” value in the assay on ACC is listed as “increases food uptake”.
Consider `CC(C)NCC(O)c1ccc(O)c(O)c1` (centres unmarked) [isoproterenol], for which the “increase of fatty acid (palmitate) oxidation” value in assay [1] turned out to be 50%. Moreover, the “effect on fatty acid oxidation” value is recorded as “further increased” in assay [2] (isoproterenol 3 mM) and “little effect” in assay [2] (isoproterenol 3 mM, listed as Isoproterenol).
Consider insulin, for which, in assay [2] (insulin 10 nM), the “effect on fatty acid oxidation” value is reported as “did not affect”.
